Laboratory results as given in US3963707A, “Novel N-nitroso compounds, compositions containing such compounds, processes for their preparation and methods of treatment therewith, and novel intermediates” (Aktiebolaget Leo, priority 1973, dated 1976).

How the values were obtained:
[1] = test system: Ehrlich ascites tumour, ELD hyperdiploid (46 chromosomes); assay: Ehrlich ascites tumour test (LD50, ED50, therapeutic index); format: in vivo, SPF NMRI mice; details: additional compounds, result in words
From the text: (§1) The high activity against tumours is further illustrated in these experiments by comparisons with known antitumour agents used in the therapy. The therapeutic indexes (T.I.), i.e. the ratios LD50/ED50, are in all comparisons much more favourable with the compounds of the present invention.
(§2) LD50 is the dose that caused a 50 percent lethality of the animals, ED50 is the dose that caused a 50 percent reduction of tumour size.
(§3) The experimental design and the interpretation of the results have been in accordance with the standards set by the CCNSC (Cancer Chemotherapy Reports, January 1959 and December 1962), and by the DR&D (Cancer Chemotherapy Reports, September 1972, Vol. 3, No. 2).
(§4) The way of administration is by the intraperitoneal route (i.p.) in each case.
Ehrlich ascites tumour, ELD hyperdiploid (46 chromosomes)
Experimental animals: SPF NMRI mice.
Tumour implant: 2 × 10^6 tumour cells i.p.
(§5) Therapy: One injection i.p. on the day following implantation.
(§6) Termination: The animals are killed on the 8th day.
(§7) Evaluation: Weights of tumours of test animals compared with those of control animals.

Hepatoma AH 130 = assay: in vivo; design: species or system SPF Wistar rats; details: additional compounds, result in words
From the text: as §1, §2, §3, §4
Experimental animals: SPF Wistar rats.
Tumour implant: 5 × 10^6 tumour cells i.p.
as §5, §6, §7

Structure (SMILES)	anti-tumor activity [1]	anti-tumor activity (Hepatoma AH 130)
C[C@]12CC[C@@H]3c4ccc(OC(=O)N(CCCl)N=O)cc4CC[C@H]3[C@@H]1CC[C@@H]2OP(=O)(O)O [estradiol-3-N-(2-chloroethyl)-N-nitroso carbamate-17β-dihydrogen phosphate]	exhibit anti-tumor activity	exhibit anti-tumor activity
C[C@]12CC[C@@H]3c4ccc(OC5CCCC5)cc4CC[C@H]3[C@@H]1CC[C@@H]2OC(=O)N(CCCl)N=O [estradiol-17β-N-(2-chloroethyl)-N-nitroso carbamate-3-cyclopentyl ether]	exhibit anti-tumor activity	exhibit anti-tumor activity
CC(=O)Oc1ccc2c(c1)CC[C@@H]1[C@@H]2CC[C@@]2(C)[C@H]1C[C@@H](OC(=O)N(CCCl)N=O)[C@@H]2OC(=O)N(CCCl)N=O [estriol-3-acetate-16α,17β-bis-/N-(2-chloroethyl)-N-nitroso carbamate/]	exhibit anti-tumor activity	exhibit anti-tumor activity
C[C@]12CC[C@H](OC(=O)N(C(=O)N(CCCl)N=O)C3CCCCC3)CC1=CC[C@@H]1[C@@H]2CC[C@]2(C)C(=O)CC[C@@H]12 [dehydroepiandrosterone-3β-/N^2-cyclohexyl-N^4-(2-chloroethyl)-N^4-nitroso allophanate/]	exhibit anti-tumor activity	exhibit anti-tumor activity
C[C@]12CC[C@@H](OC(=O)N(CCCl)N=O)C[C@@H]1CC[C@@H]1[C@@H]2CC[C@]2(C)[C@@H](OP(=O)(O)O)CC[C@@H]12 [androstanediol-3α-N-(2-chloroethyl)-N-nitroso carbamate-17β-dihydrogen phosphate]	exhibit anti-tumor activity	exhibit anti-tumor activity
C#C[C@]1(OC(=O)N(CCCl)N=O)CC[C@H]2[C@@H]3CCC4=C(CCC(=O)C4)[C@H]3CC[C@@]21C [norethynodrel-17β-N-(2-chloroethyl)-N-nitroso carbamate]	exhibit anti-tumor activity	exhibit anti-tumor activity
C[C@]12CC[C@H](OC(=O)N(C(=O)N(CCCl)N=O)c3ccccc3)CC1=CC[C@@H]1[C@@H]2CC[C@]2(C)C(=O)CC[C@@H]12 [dehydroepiandrosterone-3β-/N^2-phenyl-N^4-(2-chloroethyl)-N^4-nitroso allophanate/]	exhibit anti-tumor activity	exhibit anti-tumor activity
C#C[C@]1(OC(=O)N(CCCl)C(=O)N(CCCl)N=O)CC[C@H]2[C@@H]3CCC4=CC(=O)CC[C@@H]4[C@H]3CC[C@@]21C [17α-ethynyl-19-nortestosterone-17β-/N^2,N^4-bis (2-chloroethyl)-N^4-nitroso allophanate/]	exhibit anti-tumor activity	exhibit anti-tumor activity
C[C@]12C=CC(=O)C=C1CC[C@@H]1[C@@H]2C(=O)C[C@@]2(C)[C@H]1CC[C@]2(O)C(=O)COC(=O)N(CCCl)N=O [prednisone-21-N-(2-chloroethyl)-N-nitroso carbamate]	exhibit anti-tumor activity	exhibit anti-tumor activity
C#C[C@]1(OC(=O)N(CCCl)N=O)CC[C@H]2[C@@H]3CCC4=CC(=O)CC[C@@H]4[C@H]3CC[C@@]21C [17α-ethynyl-19-nortestosterone-17β-N-(2-chloroethyl)-N-nitroso carbamate]	exhibit anti-tumor activity	exhibit anti-tumor activity
CC(=O)Oc1ccc2c(c1)CC[C@@H]1[C@@H]2CC[C@@]2(C)[C@H]1C[C@@H](OC(C)=O)[C@@H]2OC(=O)N(C(=O)N(CCCl)N=O)C1CCCCC1 [estriol-3,16α-diacetate-17β-/N^2-cyclohexyl-N^4-(2-chloroethyl)-N^4-nitroso allophanate/]	exhibit anti-tumor activity	exhibit anti-tumor activity
C[C@]12CC[C@H]3[C@@H](CCC4=CC(=O)CC[C@@]43C)[C@@H]1CC[C@@H]2OC(=O)N(C(=O)N(CCCl)N=O)C1CCCCC1 [testosterone-17β-/N^2-cyclohexyl-N^4-(2-chloroethyl)-N^4-nitroso allophanate/]	exhibit anti-tumor activity	exhibit anti-tumor activity
CCCCCCC(=O)O[C@H]1CC[C@H]2[C@@H]3CC[C@H]4C[C@H](OC(=O)N(CCCl)N=O)CC[C@]4(C)[C@H]3CC[C@]12C [androstanediol-3α-N-(2-chloroethyl)-N-nitroso carbamate-17β-oenanthate]	exhibit anti-tumor activity	exhibit anti-tumor activity
C#C[C@]1(OC(=O)N(CCCl)N=O)CC[C@H]2[C@@H]3CCc4cc(OC(C)=O)ccc4[C@H]3CC[C@@]21C [17α-ethynylestradiol-3-acetate-17β-N-(2-chloroethyl)-N-nitroso carbamate]	exhibit anti-tumor activity	exhibit anti-tumor activity
CC(=O)O[C@@H]1C[C@H]2[C@@H]3CCc4cc(OC(=O)N(CCCl)N=O)ccc4[C@H]3CC[C@]2(C)[C@H]1OC(C)=O [estriol-16α,17β-diacetate-3-N-(2-chloroethyl)-N-nitroso carbamate]	exhibit anti-tumor activity	exhibit anti-tumor activity
CC(=O)O[C@H]1CC[C@H]2[C@@H]3CCc4cc(OC(=O)N(CCCl)C(=O)N(CCCl)N=O)ccc4[C@H]3CC[C@]12C [estradiol-17β-acetate-3-/N^2,N^4-bis (2-chloroethyl)-N-^4-nitroso allophanate/]	exhibit anti-tumor activity	exhibit anti-tumor activity
C[C@]12CC[C@@H]3c4ccc(OC(=O)N(CCCl)N=O)cc4CC[C@H]3[C@@H]1CC[C@@H]2OC(=O)N(CCCl)N=O [estradiol-3,17β-bis/N-(2-chloroethyl)-N-nitroso carbamate/]	exhibit anti-tumor activity	exhibit anti-tumor activity
CC[C@]1(OC(=O)N(CCCl)N=O)CC[C@H]2[C@@H]3CCC4=CC(=O)CC[C@@H]4[C@H]3CC[C@@]21C [17α-ethyl-19-nortestosterone-17β-N-(2-chloroethyl)-N-nitroso carbamate]	exhibit anti-tumor activity	exhibit anti-tumor activity
C[C@]12CC[C@@H](OC(=O)N(CCCl)N=O)C[C@H]1CC[C@@H]1[C@@H]2CC[C@]2(C)C(=O)CC[C@@H]12 [etiocholanolone-3α-N-(2-chloroethyl)-N-nitroso carbamate]	exhibit anti-tumor activity	exhibit anti-tumor activity
CO[C@H]1CC[C@H]2[C@@H]3CC=C4C[C@@H](OC(=O)N(CCCl)N=O)CC[C@]4(C)[C@H]3CC[C@]12C [androstenediol-17β-methylether-3β-N-(2-chloroethyl)-N-nitroso carbamate]		exhibit anti-tumor activity
C#C[C@]1(OC(C)=O)CC[C@H]2[C@@H]3CCC4=C[C@@H](OC(=O)NC(=O)N(CCCl)N=O)CC[C@@H]4[C@H]3CC[C@@]21C [ethynodiol-17β-acetate-3β-/N^4-(2-chloroethyl)-N^4-nitroso allophanate/]		exhibit anti-tumor activity
Cc1ccc(N(C(=O)O[C@H]2CC[C@@]3(C)C(=CC[C@@H]4[C@@H]3CC[C@]3(C)C(=O)CC[C@@H]43)C2)C(=O)N(CCCl)N=O)cc1C [dehydroepiandrosterone-3β-/N^2-(3,4-dimethylphenyl)-N^4-(2-chloroethyl)-N^4-nitroso allophanate/]		exhibit anti-tumor activity
C[C@]12CC[C@H]3[C@@H](CC=C4C[C@@H](OC(=O)N(CCCl)N=O)CC[C@@]43C)[C@@H]1CC[C@@H]2OC(=O)c1ccccc1 [androstenediol-17β-benzoate-3β-N-(2-chloroethyl)-N-nitroso carbamate]		exhibit anti-tumor activity
C#C[C@]1(OC(=O)N(CCCl)N=O)CC[C@H]2[C@@H]3CCC4=C[C@@H](OP(=O)(O)O)CC[C@@H]4[C@H]3CC[C@@]21C [ethynodiol-17β-N-(2-chloroethyl)-N-nitroso carbamate-3β-dihydrogen phosphate]		exhibit anti-tumor activity
CC(=O)[C@H]1CC[C@H]2[C@@H]3CC=C4C[C@@H](OC(=O)N(C(=O)N(CCCl)N=O)c5ccccc5)CC[C@]4(C)[C@H]3CC[C@]12C [pregnenolone-3β-/N^2-phenyl-N^4-(2-chloroethyl)-N^4-nitroso allophanate/]		exhibit anti-tumor activity
C#C[C@]1(OC(=O)N(CCCl)N=O)CC[C@H]2[C@@H]3CCC4=C[C@@H](OC(=O)CCCCCC)CC[C@@H]4[C@H]3CC[C@@]21C [ethynodiol-17β-N-(2-chloroethyl)-N-nitroso carbamate-3β-oenanthate]		exhibit anti-tumor activity
CC(=O)O[C@H]1C(=O)C[C@H]2[C@@H]3CCc4cc(OC(=O)N(CCCl)N=O)ccc4[C@H]3CC[C@]12C [estra-1,3,5(10)-triene-3,17β-diol-16-one,17β-acetate-3-N-(2-chloroethyl)-N-nitroso carbamate]		exhibit anti-tumor activity
